{
  "source": "patent US11746328B2",
  "about": "“Methods and systems for functional maturation of iPSC and ESC derived cardiomyocytes” (Agilent Technologies, Inc., priority 2017, dated 2023)",
  "key": {"[1]": {"tested_on": "iPSC-derived cardiomyocytes", "assay": "Inotropic compound screening on functionally matured iPSC-derived cardiomyocytes, xCELLigence RTCA CardioECR (Example VI, FIG. 7, FIG. 8)", "type": "cell-based", "settings": "for beating rate: FIG. 7B", "procedure": "Cell monolayer preparation. The iPSC-derived cardiomyocytes were seeded at the optimal seeding density in the wells of E-plate CardioECR 48, which were pre-coated with substrate. The attachment, growth and beating activity of the cells were recorded after cell seeding in real-time using xCELLigence RTCA CardioECR station, which was placed in a 37° C. tissue culture incubator. Medium change was performed every other day.\nInduction of functionally mature iPSC-derived cardiomyocytes. The electrical pacing was initiated and applied to the cell monolayer after a stable and robust beating activity of iPSC-derived cardiomyocytes is observed using xCELLigence RTCA cardioECR system. The iPSC-derived cardiomyocytes were then electrically paced at 1 Hz, 1.5 Hz and 2 Hz for 1 week respectively using xCELLigence RTCA CardioECR system. The pulse intensity and pulse duration was optimized before each pacing frequency and continuously applied to the cells. The cells were confirmed to beat at the same frequency as the pacing frequency under the pacing condition. Medium change was performed every day during chronic pacing procedure.\nInotropic compound screening. After completion of functional maturation of cardiomyocytes over the course of ramping up pacing process for 3 weeks, the inotropic compound screening was conducted. The old media was replaced with 90 μL of fresh pre-warmed media the night before compound addition. The cells will were continuously paced for an additional 12 hours at 2 Hz using the CardioECR system. The electrical pacing was terminated 6 hours prior to compound application to ensure that cells generated stable beating rate and beating amplitude for treatment. The cell beating activity is monitored and recorded in real-time on the CardioECR system.\nThe effective concentration ranges for the test substances were determined. The compound solution is prepared as follows. The compounds are dissolved in the appropriate solvent. If DMSO is used as the solvent, dissolve the compound in a high stock concentration if possible (ideally more than 1000-fold of the highest test concentration) and store at −20° C. Serial dilutions of compounds are prepared 1000× concentrated in appropriate solvent (DMSO or H2O). Diluted compounds are transferred to the wells of a V-bottom microtiter plate for further dilution in culture medium (10× concentrated).\nThe baseline of beating activity is recorded for 20 seconds every 5 minutes up to 30 minutes immediately prior to compound addition on the CardioECR system. 10 μL of 10× compound solution is added to the wells of CardioECR plate using multichannel pipette. The cell response to the compound is recorded for 20 seconds every 2 minutes immediately after compound exposure using CardioECR system. The cell beating activity, including beating rate and beating amplitude, is evaluated at 30 minutes post compound addition."}, "[2]": {"tested_on": "iPSC cardiomyocytes", "assay": "Inotropic compound test on iPSC cardiomyocytes, xCELLigence RTCA CardioECR (Example V)", "type": "cell-based", "settings": "30 minutes post compound addition; for beating rate: FIG. 6B; for beating amplitude (positive inotropic effect): FIG. 6A", "procedure": "The functional maturation of iPSC cardiomyocytes from Example III was tested using inotropic compounds. Results are shown in FIG. 6A-B. In particular, iPSC cardiomyocytes were seeded in the wells of the CardioECR Plate (E-Plate CardioECR 48) for approximately 7 days until they formed a synchronous, stable beating monolayer. The cells were then electrically paced at 1 Hz, 1.5 Hz and 2 Hz for 1 week respectively (week 1: 1 Hz pacing; week 2: 1.5 Hz pacing; week 3: 2 Hz pacing). After pausing the 2 Hz pacing, cell media was replaced with 90 μL of fresh pre-warmed media the night before compound addition. The cells were then continuously paced for additional 8 hours at 2 Hz. The electrical pacing was terminated 5 hours prior to compound addition to ensure that cells would generate a stable beating rate and beating amplitude for treatment. The baseline beating activity was recorded for 20 seconds every 5 minutes up to 30 minutes immediately prior to compound addition. 10 μL of 10× compound solution was then added to the wells of CardioECR plate using a multichannel pipette. The cell response to the compound was recorded for 20 seconds every 2 minutes immediately after compound exposure using CardioECR system. The cell beating activity, including beating rate and beating amplitude, was evaluated at 30 minutes post compound addition."}, "[3]": {"tested_on": "immature cardiomyocytes", "settings": "T3 treatment of immature cardiomyocytes; cited from earlier work"}, "[4]": {"settings": "FIG. 8 panel, functional matured iCell cardiomyocytes after pacing, representative concentrations"}, "[5]": {"settings": "spontaneous beating cardiomyocytes"}},
  "data": [
    {"compound": "Cc1[nH]c(=O)c(C#N)cc1-c1ccncc1", "note": "[milrinone]", "values": [
      {"measurement": "beating rate", "setting": "[1]; chronically paced cardiomyocytes, 30 minutes post compound addition", "result": "slightly increased"},
      {"measurement": "beating amplitude", "setting": "[1]; electrically paced cardiomyocytes, 30 minutes post compound addition, FIG. 7A", "result": "significantly increased"},
      {"measurement": "beating rate", "setting": "[1]; spontaneous beating cardiomyocytes, 30 minutes post compound addition", "result": "slightly increased"}
    ]},
    {"compound": "COC(=O)C1=C(C)NC(C)=C([N+](=O)[O-])C1c1ccccc1C(F)(F)F", "note": "(stereo not shown) [bayK]", "values": [
      {"measurement": "inotropic effect", "setting": "[1]; [4]", "result": "positive inotropic effect"}
    ]},
    {"compound": "C[C@H]1O[C@@H](O[C@H]2[C@@H](O)C[C@H](O[C@H]3[C@@H](O)C[C@H](O[C@H]4CC[C@@]5(C)[C@H](CC[C@@H]6[C@@H]5C[C@@H](O)[C@]5(C)[C@@H](C7=CC(=O)OC7)CC[C@]65O)C4)O[C@@H]3C)O[C@@H]2C)C[C@H](O)[C@@H]1O", "note": "[digoxin]", "values": [
      {"measurement": "inotropic effect", "setting": "[1]; [4]", "result": "positive inotropic effect"}
    ]},
    {"compound": "CC(C)NCC(O)c1ccc(O)c(O)c1", "note": "(stereo not shown) [isoproterenol]", "values": [
      {"measurement": "beating rate", "setting": "[2]; chronically paced cardiomyocytes (1, 1.5, 2 Hz, 1 week each)", "result": "increase"},
      {"measurement": "beating amplitude (positive inotropic effect)", "setting": "[2]; chronically paced cardiomyocytes", "result": "increase"},
      {"measurement": "beating amplitude (positive inotropic effect)", "setting": "[2]; [5]", "result": "only observed in paced cells"},
      {"measurement": "beating rate", "setting": "[2]; [5]", "result": "increase"},
      {"measurement": "chronotropic effect", "setting": "[1]; [4]", "result": "positive chronotropic effect"}
    ]},
    {"compound": "N[C@@H](Cc1cc(I)c(Oc2ccc(O)c(I)c2)c(I)c1)C(=O)O", "note": "[T3, Tri-iodo-L-thryonine]", "values": [
      {"measurement": "calcium handling properties", "setting": "[3]", "result": "enhanced"},
      {"measurement": "cardiomyocyte size", "setting": "[3]", "result": "increased"},
      {"measurement": "contractile force generation", "setting": "[3]", "result": "increased"},
      {"measurement": "maximal mitochondrial respiration capacity", "setting": "[3]", "result": "increased"},
      {"measurement": "proliferation", "setting": "[3]", "result": "decreased"},
      {"measurement": "sarcomere length", "setting": "[3]", "result": "increased"}
    ]}
  ]
}
